In PMC12516686, “Design of 2‑Aminobenzothiazole Derivatives Targeting Trypanosomatid PTR1 by a Multidisciplinary Fragment Hybridization Approach” (Journal of Medicinal Chemistry, 2025):
Where two headings read alike, the source gives them in different places.

Columns and labels:
TbPTR1 [1] = molecular target: T1, TbPTR1 (Trypanosoma brucei brucei, UniProt O76290); assay: TbPTR1 kinetic direct enzyme assay (NADPH consumption); format: biochemical; conditions: direct method of activity measurement, duplicate
T1 sequence (O76290 1-268): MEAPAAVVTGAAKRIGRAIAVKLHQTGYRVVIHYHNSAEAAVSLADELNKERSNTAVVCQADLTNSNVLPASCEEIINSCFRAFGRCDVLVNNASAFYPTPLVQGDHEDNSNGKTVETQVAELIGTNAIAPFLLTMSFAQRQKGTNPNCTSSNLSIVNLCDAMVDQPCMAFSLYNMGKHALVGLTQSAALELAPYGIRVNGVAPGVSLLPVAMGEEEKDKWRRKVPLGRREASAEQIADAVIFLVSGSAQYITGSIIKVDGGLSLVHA
Experimental: A direct kinetic assay was carried out to measure NADPH consumption over time using a Jasco V730 double-beam spectrophotometer. The assay was conducted as reported in ref . Thawed protein was incubated in 40 mM citrate buffer (pH 3.7) at a final concentration of 30 nM, along with the endogenous substrate at 27 μM. The reaction was carried out in a Kartell semimicro disposable polystyrene plastic cuvette (Kartell LABWARE, Milan, Italy). […] The maximum DMSO concentration was 2% in the assay solution. Each compound was tested in duplicate with a control assay without the inhibitor. The experiment was conducted 3 times. The reaction was initiated by adding NADP(H) to a final concentration of 134 μM in the cuvette, and the change in absorbance (ΔOD/min) at λ = 340 nm was monitored over 180 s at 25 °C with 27 μM. Six different concentrations were analyzed and fitted to a three-parameter logistical (3PL) model. A 95% confidence interval (CI) was used to calculate the standard error for each curve fitting, and a Student’s t test was performed for each duplicate with a significance threshold of p ≤ 0.05. Data fitting and statistical analysis were carried out using the GraphPad Prism Suite (2021).

[2] = test system: Trypanosoma brucei brucei L427 wild-type (WT) bloodstream forms; assay: Activity against T. brucei (resazurin-based assay); format: cell-based; conditions: at 10 μM
Experimental: The parasites were grown in 5 mL T25 ventilated flasks containing complete HMI-9 medium. The medium was supplemented with 10% heat-inactivated FBS and 100 IU/mL penicillin/streptomycin. To maintain the cultures, subpassages were performed every 2 days at a concentration of 1 × 10^4 cells/mL.
The efficacy of the compounds against Trypanosoma brucei brucei L427 wild-type (WT) bloodstream forms was assessed using a resazurin-based assay as described elsewhere. T. b. brucei L427 bloodstream forms were prepared at a cell density of 5 × 10^3 cells/mL in supplemented complete medium. Serial dilutions of the test compounds were prepared in a final volume of 100 μL, and 100 μL of the parasite suspension was added to each well containing the compound dilutions, resulting in a total volume of 200 μL per well. A dose–response curve for pentamidine was included as a quality control in each assay, and each condition was tested in duplicate. The plates were incubated for 72 h under the specified conditions for the parasite. After the incubation period, 20 μL of a 0.5 mM resazurin solution was added to each well, and the plates were incubated for an additional 4 h under the same conditions. Fluorescence was measured at an excitation wavelength of 544 nm and an emission wavelength of 590 nm using a Synergy 2 Multi-Mode Reader (Biotek, Winooski, VT, USA). The results were expressed as the percentage of parasite growth inhibition compared to the control (untreated parasites) and represented the average of at least three independent experiments.

[3] = test system: THP-1-derived macrophages; assay: Cytotoxicity assay (MTT) on THP-1-derived macrophages; format: cell-based, Human; conditions: cytotoxic concentration for THP1 cells
Experimental: Human leukemia cell line THP-1 (ATCC TIB202) cells were cultured in RPMI-1640 medium supplemented with 10% heat-inactivated fetal bovine serum (FBS), 2 mM L-glutamine, 100 IU/mL penicillin/streptomycin, and 20 mM HEPES. The cell line was maintained in a humidified incubator at 37 °C with 5% CO2. Subcultures were performed every 3 days in 20 mL of media at a concentration of 2 × 10^5 cells/mL in a T75 flask. All cell culture reagents were purchased from Lonza Bioscience (Morrisville, NC).
The cytotoxicity of the compounds on THP-1-derived macrophages was assessed using the colorimetric MTT assay (3-(4,5-dimethylthiazol-2-yl)-2,5-diphenyl tetrazolium bromide) as described elsewhere. THP-1 cells were suspended in RPMI complete medium at a density of 1 × 10^6 cells/mL, and 100 μL/well was seeded in a 96-well plate. The cells were differentiated into macrophages by adding 40 ng/mL of phorbol-myristate 13-acetate (PMA, Sigma, Saint Louis, MI, USA) for 24 h, followed by replacement with fresh medium for another 24 h. Subsequently, the cells were incubated with 100 μL of compounds, ranging from 100 to 12.5 μM, diluted in RPMI complete medium. Each condition was tested in triplicate. After 72 h of incubation at 37 °C with 5% CO2, the medium was removed, and 200 μL of 0.5 mg/mL MTT solution diluted in RPMI was added. The plates were incubated for an additional 4 h, after which 160 μL of the media was removed and replaced with 160 μL of 2-propanol. Absorbance was read at 570 nm using a Synergy 2 Multi-Mode Reader (Biotek, Winooski, VT, USA). Cytotoxicity was evaluated by presenting the CC50 (the concentration of the drug that reduces cell viability by 50%) interval or by determining the CC50 value through nonlinear regression analysis using GraphPad Prism version 8.1.1 for Windows (GraphPad Software, San Diego, CA, USA). Results represent the average of at least three independent experiments.

TbPTR1 [4] = molecular target: T1, TbPTR1; set-up: method as in PMID 30908048; conditions: cited from earlier work; for IC50: reference compounds, SD within ± 10% ref 22; for TbPTR1 % enzyme inhibition: at 50 μM ref 22
[5] = test system: Trypanosoma brucei brucei L427 wild-type (WT) bloodstream forms; set-up: method as in PMID 30908048; conditions: cited from earlier work; for T. brucei % cell growth inhibition: at 10 μM ref 22; for EC50: read-out: T. brucei EC50
[6] = test system: THP-1-derived macrophages; set-up: method as in PMID 30908048; conditions: cytotoxic concentration for THP1 cells ref 22; cited from earlier work
[7] = test system: L. infantum intracellular amastigotes; set-up: method as in PMID 30908048; conditions: at 10 μM; intracellular amastigotes ref 22; cited from earlier work
LmPTR1 = molecular target: T2, LmPTR1 (Leishmania major, UniProt Q01782); set-up: method as in PMID 30908048; conditions: at 50 μM ref 22; cited from earlier work
T2 sequence (Q01782 1-288): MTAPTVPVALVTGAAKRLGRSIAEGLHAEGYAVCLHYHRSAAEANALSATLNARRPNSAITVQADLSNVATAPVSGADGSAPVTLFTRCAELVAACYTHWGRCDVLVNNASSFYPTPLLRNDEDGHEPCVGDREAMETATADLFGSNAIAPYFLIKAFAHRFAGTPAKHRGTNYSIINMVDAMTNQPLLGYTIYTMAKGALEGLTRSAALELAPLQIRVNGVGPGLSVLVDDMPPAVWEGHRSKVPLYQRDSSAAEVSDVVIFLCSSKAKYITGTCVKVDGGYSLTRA

[8] = molecular target: the molecule itself; assay: crystal structure; hanging-drop vapour diffusion, crystals soaked with inhibitors; space group P2(1), asymmetric unit holds a functional TbPTR1 tetramer; ternary complexes with NADP(H) and 1a, 2b, 2c, 2d or 2e

Question: With “2-amino-N-(3-(trifluoromethyl)phenethyl)benzo[d]thiazole-6-carboxamide [Compound 2g]” as the molecule, how does the IC50 (TbPTR1 [1]) read?
Answer: 7 µM

Question: And the “T. brucei % cell growth inhibition” value [2]?
Answer: 31±7%

Question: What about the CC50 [3] of the same molecule?
Answer: > 100 µM

Question: For “2-amino-N-(4-(trifluoromethyl)phenethyl)benzo[d]thiazole-6-carboxamide [Compound 2f]”, which IC50 (TbPTR1 [1]) is on record?
Answer: 5.7 µM

Question: What about the CC50 [3] of the same molecule?
Answer: > 100 µM

Question: For Nc1nc2ccc(SCc3ccc(Cl)c(Cl)c3)cc2s1 [III], which IC50 (TbPTR1 [4]) is on record?
Answer: 0.9 µM

Question: And the “T. brucei % cell growth inhibition” value [5]?
Answer: 46±1%

Question: Which IC50 (TbPTR1 [4]) does the source give for Nc1nc2ccc(OCc3ccc(Cl)c(Cl)c3)cc2s1 [II] here?
Answer: 3.4 µM

Question: What about the “T. brucei % cell growth inhibition” value [5] of the same molecule?
Answer: 42±11%

Question: And the CC50 [6]?
Answer: > 100 µM

Question: With Nc1nc2ccc(S(=O)(=O)Cc3ccc(Cl)c(Cl)c3)cc2s1 [IV] as the molecule, how does the “TbPTR1 % enzyme inhibition” value (TbPTR1 [4]) read?
Answer: 16.7±8.4%

Question: What about the “T. brucei % cell growth inhibition” value [5] of the same molecule?
Answer: 37±11%

Question: And the “L. infantum % cell growth inhibition” value [7]?
Answer: 21±5%

Question: What about the “LmPTR1 % enzyme inhibition” value (LmPTR1) of the same molecule?
Answer: 26.9±1.8%

Question: Which “TbPTR1 % enzyme inhibition” value (TbPTR1 [4]) does the source give for Nc1nc2c(O)cc(C(=O)NCc3ccc(Cl)c(Cl)c3)cc2s1 [VII] here?
Answer: 11.8±4.6%

Question: And the EC50 [5]?
Answer: 5.9 µM

Question: And the “L. infantum % cell growth inhibition” value [7]?
Answer: 24±15%

Question: What about the “LmPTR1 % enzyme inhibition” value (LmPTR1) of the same molecule?
Answer: 8.7±0.6%

Question: With COc1ccc(CN(Cc2ccc(Cl)c(Cl)c2)C(=O)c2ccc3nc(N)sc3c2)cc1OC [VI] as the molecule, how does the IC50 (TbPTR1 [4]) read?
Answer: 15.9 µM

Question: And the EC50 [5]?
Answer: 9.7 µM

Question: Which IC50 (TbPTR1 [4]) does the source give for Nc1nc2ccc(C(=O)NCc3ccc(Cl)c(Cl)c3)cc2s1 [V] here?
Answer: 5.4 µM

B1: Trypanosoma brucei pteridine reductase 1 (enzyme)
chain: MEAPAAVVTGAAKRIGRAIAVKLHQTGYRVVIHYHNSAEAAVSLADELNKERSNTAVVCQADLTNSNVLPASCEEIINSCFRAFGRCDVLVNNASAFYPTPLVQGDHEDNSNGKTVETQVAELIGTNAIAPFLLTMSFAQRQKGTNPNCTSSNLSIVNLCDAMVDQPCMAFSLYNMGKHALVGLTQSAALELAPYGIRVNGVAPGVSLLPVAMGEEEKDKWRRKVPLGRREASAEQIADAVIFLVSGSAQYITGSIIKVDGGLSLVHA
modifications: Cys168 oxidized to S-oxycysteine (Csx168) in the crystal structures
notes: Pteridine reductase 1 (PTR1) of Trypanosoma brucei; Ala268 is called the C-terminus; also called TbPTR1; PTR1; source: E. coli BL21(DE3), purified (IMAC on HisTrap FF, SEC on Superdex 200)
Question: For B1, which “stoichiometry N” value [8] is on record?
Answer: 4
